Data from patent US20100239498A1, “METHOD OF MAINTAINING THE FUNCTION OF LIVER TISSUE CELLS OVER LONG TIME” (priority 2006, published 2010).

Tested on: CYP1A
Assay: CYP1A induction in transplanted murine subcutaneous hepatic tissue, tissue staining (Example 3)
Assay type: in vivo, mouse
Details: 120 days after transplantation; intraperitoneal once a day for three days; tissue staining 24 hours after final administration
Method: The murine hepatic tissue cell sheet as obtained in Example 1 was transplanted by application into a murine subcutaneous site having undergone the induction of angiogenesis in accordance with the method of transplanting a hepatic cell sheet as shown in Example 1. One hundred twenty days after transplantation, 3-methylcholantrene (Sigma-Aldrich, St. Louis, Mo.) was intraperitoneally administered once a day and continuously for three days, and 24 hours after the final administration, the mouse was killed and the hepatic tissue prepared was subjected to tissue staining (Example 3). […] Further, CYP1A means CYP1A activity.

Cc1ccc2cc3c(ccc4ccccc43)c3c2c1CC3 [3-methylcholantrene]
induction of CYP1A (CYP1A activity) in prepared murine subcutaneous hepatic tissue: strongly induced
